Our source for the insect mortality rate values is US8980912B2, “Cyclic amine compound and acaricide” (Nippon Soda Co., Ltd., priority 2010, dated 2015).

This data set concerns Tetranychus urticae. Put plainly: Efficacy test against Tetranychus urticae (adult mites on kidney bean plant, spray). The class given is in vivo. Particulars: emulsion diluted to 31 ppm, sprayed; organic phosphorous-resistant adult females; 3 days after spraying. How it is done: Efficacy Test Against Tetranychus urticae
Seventeen organic phosphorous-resistant adult female Tetranychus urticae mites were inoculated onto the first leaves of a kidney bean plant planted in a No. 3 pot 7 to 10 days after germination. Next, an emulsion was prepared having the formula indicated in the aforementioned Preparation example 2. […] The kidney bean plant was then placed in a temperature-controlled room at a temperature of 25° C. and humidity of 65%. The adult insect mortality rates were investigated 3 days after spraying. The test was repeated twice.

On to `COC(C)COc1cc(C(F)(F)F)ccc1OC1CC2CCCC(C1)N2Oc1ccc(C(F)(F)F)cn1` (stereo not shown) [H-81], for which the insect mortality rate was no less than 80%.
